Reference: the supplement of paper PMC7108870

Tests used:
HEK293sieSTAT3(Y640F) [1] = test: drug sensitivity score (DSS), cytotoxicity CellTox Green (DSS (dimensionless)); higher = more cytotoxic; extreme values may be limits of the assay; conditions: 72 h; STAT3 variant: Y640F (constitutively active)
Summary of the method: (§1)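 For 72 hours at 37°C and 5% CO2, HEK293 cells overexpressing wild-type or mutant STAT3 and carrying a STAT3-dependent luciferase reporter were cultured on compounds at 5 concentrations in 10-fold dilutions. CellTox Green and then CellTiter-Glo signals were read, normalised to negative and positive control wells, and converted in Breeze into a drug sensitivity score based on dose-response curve area. Values are from one representative of two experiments.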

HEK293sieSTAT3(wt) [2] = test: as above; conditions: 72 h; STAT3 variant: wild type
Summary of the method: as §1

HEK293sieSTAT3(Y640F) [3] = test: drug sensitivity score (DSS), viability CellTiter-Glo (DSS (dimensionless)); higher = more growth inhibition; extreme values may be limits of the assay; conditions: 72 h; STAT3 variant: Y640F (constitutively active)
Summary of the method: as §1

HEK293sieSTAT3(wt) [4] = test: as above; conditions: 72 h; STAT3 variant: wild type
Summary of the method: as §1

| SMILES | drug sensitivity score (HEK293sieSTAT3(Y640F) [1]) | drug sensitivity score (HEK293sieSTAT3(wt) [2]) | drug sensitivity score (HEK293sieSTAT3(Y640F) [3]) | drug sensitivity score (HEK293sieSTAT3(wt) [4]) |
| --- | --- | --- | --- | --- |
| COc1cc(C(=O)O)ccc1NC(=O)[C@@H]1N[C@@H](CC(C)(C)C)[C@](C#N)(c2ccc(Cl)cc2F)[C@H]1c1cccc(Cl)c1F [Idasanutlin] (top concentration tested 10000 nM) | 0.11 | 0 | 4.92 | 3.61 |
| COc1cc(CCc2cc(NC(=O)c3ccc(N4CC(C)NC(C)C4)cc3)n[nH]2)cc(OC)c1 (stereo not given) [AZD4547] (top concentration tested 1000 nM) | 0 | 0.01 | 1.23 | 0.43 |
| CNc1ncc2cc(-c3cc(NC(=O)NCCC(C)(C)C)c(F)cc3C)c(C)nc2n1 (top concentration tested 10000 nM) | 0 | 0.9 | 5.64 | 3.99 |
| O=C(O)c1ccc(-c2c[nH]c3ncc(-c4ccccc4)cc23)cc1C1CCCC1 (top concentration tested 10000 nM) | 0 | 3.29 | 2.42 | 3.17 |
| Clc1ccc(C(c2ccccc2Cl)C(Cl)Cl)cc1 (stereo not given) [Mitotane] (top concentration tested 10000 nM) | 0 | 0 | 0 | 0 |
| C[C@@H]1C[C@H]2[C@@H]3CCC4=CC(=O)C=C[C@]4(C)[C@@]3(F)[C@@H](O)C[C@]2(C)[C@@]1(O)C(=O)CO [Dexamethasone] (top concentration tested 10000 nM) | 0 | 0 | 3 | 2.01 |
| N.N.[Cl][Pt][Cl] [Cisplatin] (top concentration tested 100000 nM) | 5.83 | 6.89 | 19.6 | 18.9 |
| O=C(NOC[C@H](O)CO)c1ccc(F)c(F)c1Nc1ccc(I)cc1F (top concentration tested 1000 nM) | 0 | 0 | 0 | 0 |
| CNC(=O)c1ccc(N2C(=S)N(c3ccc(C#N)c(C(F)(F)F)c3)C(=O)C2(C)C)cc1F [Enzalutamide] (top concentration tested 10000 nM) | 0 | 0 | 0.6 | 0 |
| Cn1ncnc1[C@H]1c2n[nH]c(=O)c3cc(F)cc(c23)N[C@@H]1c1ccc(F)cc1 [Talazoparib] (top concentration tested 1000 nM) | 1.02 | 5.13 | 15.9 | 16 |
| COc1cc2ncnc(Nc3ccc(F)c(Cl)c3)c2cc1NC(=O)/C=C/CN1CCCCC1 [Dacomitinib] (top concentration tested 1000 nM) | 0 | 0 | 1.76 | 5.47 |
| O=C(O)C1(C(=O)O)CCC1.[NH2-].[NH2-].[Pt+2] [Carboplatin] (top concentration tested 100000 nM) | 1.37 | 4.89 | 9.56 | 10.6 |
| O=C(/C=C\n1cnc(-c2cc(C(F)(F)F)cc(C(F)(F)F)c2)n1)NNc1ccccn1 [Verdinexor] (top concentration tested 1000 nM) | 5.2 | 10.5 | 15.5 | 17.4 |
| C=CC(=O)Nc1cc2c(Nc3ccc(F)c(Cl)c3)ncnc2cc1OCCCN1CCOCC1 [Canertinib] (top concentration tested 10000 nM) | 6.41 | 7.96 | 6.3 | 8.37 |
| CNc1nc(-c2ccc3c(N)n[nH]c3c2)cc(N2C[C@@H](C(=O)NC3CCCCC3)CC[C@H]2C)n1 (top concentration tested 10000 nM) | 0.35 | 0 | 1.37 | 4.33 |
| C[C@]12CC[C@H](O)CC1=CC[C@@H]1[C@@H]2CC[C@]2(C)C(c3cccnc3)=CC[C@@H]12 [Abiraterone] (top concentration tested 5000 nM) | 0 | 0 | 2.65 | 1.01 |
| O=C(O)CNC(=O)c1c(O)c2ccccc2n(Cc2ccccc2)c1=O [IOX-2] (top concentration tested 50000 nM) | 0 | 0 | 0 | 2.91 |
| CCN(c1cc(-c2ccc(CN3CCOCC3)cc2)cc(C(=O)NCc2c(C)cc(C)[nH]c2=O)c1C)C1CCOCC1 [Tazemetostat] (top concentration tested 10000 nM) | 0 | 0 | 0 | 1.85 |
| CCN(CC)CCCC(C)Nc1c2ccc(Cl)cc2nc2ccc(OC)cc12 (stereo not given) [Mepacrine] (top concentration tested 50000 nM) | 18.1 | 19.7 | 21.1 | 21.4 |
| CCS(=O)(=O)c1cccc(-c2cc(C(=O)NC3CCN(C)CC3)c(C)c3[nH]c4ncc(C)cc4c23)c1 [TAK-901] (top concentration tested 1000 nM) | 0 | 2.83 | 4.54 | 4.52 |
| C=CC(=O)N1CCC(Oc2cc3c(Nc4ccc(Cl)c(Cl)c4F)ncnc3cc2OC)CC1 [Poziotinib] (top concentration tested 1000 nM) | 0 | 0 | 1.53 | 0 |
| CC1(C)CCC(CN2CCN(c3ccc(C(=O)NS(=O)(=O)c4ccc(NCC5CCOCC5)c([N+](=O)[O-])c4)c(Oc4cnc5[nH]ccc5c4)c3)CC2)=C(c2ccc(Cl)cc2)C1 [Venetoclax] (top concentration tested 1000 nM) | 0 | 0 | 0 | 0 |
| CC1(COc2ccc3c(c2)ncn3-c2ccc3cccc(N4CCC(N)CC4)c3n2)COC1 [Crenolanib] (top concentration tested 10000 nM) | 8.74 | 11 | 9.27 | 11.9 |

| SMILES | drug sensitivity score (HEK293sieSTAT3(Y640F) [1]) | drug sensitivity score (HEK293sieSTAT3(wt) [2]) | drug sensitivity score (HEK293sieSTAT3(Y640F) [3]) | drug sensitivity score (HEK293sieSTAT3(wt) [4]) |
| --- | --- | --- | --- | --- |
| Oc1ccc2c(c1)CC[C@H](c1ccccc1)[C@@H]2c1ccc(OCCN2CCCC2)cc1 [Lasofoxifene] (top concentration tested 1000 nM) | 0 | 0 | 2.47 | 3.21 |
| O=NN(CCCl)C(=O)NCCCl [Carmustine] (top concentration tested 10000 nM) | 0 | 0 | 3.24 | 1.45 |
| COc1nc(N)nc2c1ncn2[C@@H]1O[C@H](CO)[C@@H](O)[C@@H]1O [Nelarabine] (top concentration tested 10000 nM) | 0 | 0 | 0.7 | 1.07 |
| Cc1cc(-c2nc(-c3ccc(OC(F)(F)F)cc3)no2)nn1Cc1ccnc(N2CCN(C3CC3)CC2)c1 [BAY 87-2243] (top concentration tested 1000 nM) | 0 | 0 | 12.6 | 12.5 |
| CC1CCC(n2c3cnccc3c3cnc(Nc4ccc5c(n4)CCN(C(=O)CO)C5)nc32)CC1 (stereo not given) [AMG-925] (top concentration tested 1000 nM) | 0 | 2.08 | 5.44 | 5.61 |
| Cn1cc(CNCC2CCN(c3ncc(C(=O)NO)cn3)CC2)c2ccccc21 [Quisinostat] (top concentration tested 1000 nM) | 6.14 | 7.75 | 16.3 | 17.9 |
| CN(C)Cc1c(C(=O)NCCOc2ccc(C(=O)NO)cc2)oc2ccccc12 [Abexinostat] (top concentration tested 10000 nM) | 10.7 | 17.5 | 22.9 | 22.3 |
| CC(C)(C)c1cc(NC(=O)Nc2ccc(-c3cn4c(n3)sc3cc(OCCN5CCOCC5)ccc34)cc2)no1 [Quizartinib] (top concentration tested 1000 nM) | 0 | 1.05 | 2.15 | 2.01 |
| CCOc1cc2ncc(C#N)c(Nc3ccc(OCc4ccccn4)c(Cl)c3)c2cc1NC(=O)/C=C/CN(C)C [Neratinib] (top concentration tested 1000 nM) | 0 | 0 | 3.35 | 1.99 |
| O=C(O)c1ccc2c(c1)nc(Nc1cccc(Cl)c1)c1ccncc12 [Silmitasertib] (top concentration tested 10000 nM) | 0 | 1.84 | 6.52 | 7.79 |
| CS(=O)(=O)OCCCCOS(C)(=O)=O [Busulfan] (top concentration tested 100000 nM) | 0 | 1.26 | 0.42 | 4.87 |
| CC(C)Oc1cc(Nc2nc(N[C@@H](C)c3ccc(F)cn3)ncc2Cl)n[nH]1 [AZ-23] (top concentration tested 1000 nM) | 0 | 1.27 | 3.11 | 6.5 |
| CC(C)C[C@H](NC(=O)[C@H](Cc1ccccc1)NC(=O)c1cnccn1)B(O)O [Bortezomib] (top concentration tested 1000 nM) | 30.6 | 31.7 | 29.8 | 32.5 |
| NC1(c2ccc(-c3nc4ccn5c(=O)[nH]nc5c4cc3-c3ccccc3)cc2)CCC1 [MK-2206] (top concentration tested 1000 nM) | 0 | 0 | 3.71 | 8.2 |
| COc1cc(Nc2ncc(F)c(Nc3ccc4c(n3)N(COP(=O)(O)O)C(=O)C(C)(C)O4)n2)cc(OC)c1OC [Fostamatinib] (top concentration tested 2500 nM) | 2.07 | 3.18 | 4.33 | 4.18 |
| CNC(=O)c1cc(Oc2ccc(NC(=O)Nc3ccc(Cl)c(C(F)(F)F)c3)cc2)ccn1 [Sorafenib] (top concentration tested 1000 nM) | 1.07 | 0 | 0 | 0.09 |
| Nc1ncnc2c1c(COc1cccc(Cl)c1)nn2C1CCOCC1 (top concentration tested 10000 nM) | 0 | 0 | 0 | 0.14 |
| C[C@]1(c2nc3c(C(N)=O)cccc3[nH]2)CCCN1 [Veliparib] (top concentration tested 10000 nM) | 0 | 0.43 | 0 | 2.28 |
| Nc1cc(C(F)(F)F)c(-c2cc(N3CCOCC3)nc(N3CCOCC3)n2)cn1 [Buparlisib] (top concentration tested 10000 nM) | 0.73 | 4 | 10.5 | 12.3 |
| NCCNc1ccc(NCCN)c2c1C(=O)c1ccncc1C2=O [Pixantrone] (top concentration tested 10000 nM) | 0 | 0 | 1.82 | 0 |
| COc1cc2c(Oc3ccc(NC(=O)C4(C(=O)Nc5ccc(F)cc5)CC4)cc3F)ccnc2cc1OCCCN1CCOCC1 [Foretinib] (top concentration tested 1000 nM) | 0 | 5.97 | 6.63 | 5.99 |
| COc1cc(OC)c(/C=C/S(=O)(=O)Cc2ccc(OC)c(NCC(=O)O)c2)c(OC)c1 [Rigosertib] (top concentration tested 10000 nM) | 6.71 | 18.7 | 21.8 | 21.9 |
